Assay results reported in patent publication US7897387B2, “Fungal cell wall synthesis gene” (Eisai R&D Management Co., Ltd., priority 2000, dated 2011).
In brackets after ≈: the same amount, converted by molar mass.

Experiments:
Assay type in all cases: cell-based
[1] = test system: S. cerevisiae CW63/GWT1 strain; assay: Growth of GWT1-overexpressed S. cerevisiae CW63/GWT1 strain; conditions: for sensitivity or resistance of the GWT1-overexpressed strain: GWT1-overexpressed strain compared with wild type strain
Experimental: (§1) S. cerevisiae CW63 strain having a cephalosporinase gene as the reporter gene was cultured by the method according to Example A1, TRP1 of the integration vector was cleaved with EcoRV, and then transformation was carried out by the method of Example A1. GWT1-overexpressed strain (S. cerevisiae CW63/GWT1 strain) was obtained by culturing in SD(Trp^−) medium at 30° C. for 3 days.
(§2) Using S. cerevisiae CW63 strain and GWT1 gene introduced S. cerevisiae CW63/GWT1, activity of the aforementioned compound (Ia) was examined by a method according to the method described in Example A2.

[2] = test system: process that transports GPI-anchored proteins to the cell wall; assay: S. cerevisiae reporter system (cephalosporinase-CWP2 fusion, CW63 strain); conditions: S. cerevisiae reporter system of Example A2, cell wall fraction
Experimental: Since sensitivity of the enzyme reaction is better with cephalosporinase compared to lysozyme, S. cerevisiae introduced with pRCW63T (S. cerevisiae CW63 strain) was used for the screening of compounds.
(§3) After stationary cultivation in YPD liquid medium at 30° C. for 48 hours, the yeast cell culture was diluted 100 times with YPD liquid medium (3-5×10^5 cells/ml) and 75 μl/well aliquots thereof were inoculated into a V-bottomed 96-well plate containing 25 μl/well of a diluted test sample, and this was subjected to stationary cultivation at 30° C. for 48 hours. After centrifuging the plate, 25 μl of the supernatant was sampled and placed in a flat-bottomed 96-well plate, and this was used as the culture supernatant fraction.
The precipitated cells were suspended, and 75 μl/well aliquots of Zymolyase (Seikagaku Corporation) solution prepared with 2.4 M sorbitol were added and were allowed to react at 30° C. for 1 hour. After centrifuging the plate, 10 μl of the supernatant was sampled and placed in a flat-bottomed 96-well plate, 15 μl of phosphate buffer was added, and this was used as the cell wall fraction.
The cephalosporinase activities in the medium and in the cell wall fraction were measured by adding 200 μM of nitrocefin solution to a pooled sample, and after a certain period of time, stopping the reaction with citric acid buffer, and then measuring the absorbance at 490 nm.
Compounds were evaluated using the S. cerevisiae reporter system of Example A2. The lowest concentration at which cephalosporinase activity in the cell wall fraction became 50% or less compared to that obtained where the compound was not treated, was defined to be the IC50 value.

[3] = test system: mutant GWT1 gene (R1 or R5); assay: Growth of GWT1-disrupted S. cerevisiae clone harbouring mutant GWT1 gene (R1 or R5) plasmid; conditions: chromosomal GWT1 disrupted, pRS316GWT1-R1 or pRS316GWT1-R5, medium containing the compound
Experimental: S. cerevisiae LW63 strain having a lysozyme gene as the reporter gene due to introduction of pRLW63T was treated with ethyl methanesulfonate, then by culturing in a SD medium containing the aforementioned compound of the formula (Ia) at concentrations of 1.56, 3.13, and 6.25 μg/ml at 37° C. for 3 days, five resistant mutant strains (R1 to R5) were obtained. […] To confirm whether or not these two mutant strains have mutations on the GWT1 gene, genomic DNAs were extracted from both mutant strains, and the nucleotide sequence of the GWT1 gene portion was determined. As a result, in the R1 mutant strain, guanine at position 1213 had been mutated to adenine. Furthermore, in the R5 mutant strain, guanine at position 418 had been mutated to adenine. Therefore, it was elucidated that in the R1 mutant strain, the 405th amino acid, […], and in the R5 mutant strain, the 140th amino acid, glycine, had been changed to arginine.
Next, to confirm whether or not these mutations are the cause of the acquisition of the specific resistant characteristic to the aforementioned compound of the formula (Ia), the mutant GWT1 gene (R1 or R5) was isolated using the genomic DNAs derived from both mutant strains as templates and the primers of SEQ ID NOs: 60 and 61. […]

GWT1-deficient strain = assay: Growth of GWT1-deficient S. cerevisiae strain
Experimental: His5 cassette containing the GWT1 sequence on both ends was amplified by PCR using the his5 gene of S. pombe (Longtine M S et al, Yeast, 14: 953-961, 1998) as template and SEQ ID NO:25 and SEQ ID NO:26 as primers.
S. cerevisiae G2-10 was cultured and the cells were collected by the method according to Example A1, and the abovementioned PCR product was transformed by the method according to Example A1. A GWT1-deficient strain was obtained by cultivation in SD(His^−) medium at 30° C. for 5 to 7 days.

[4] = test system: process that transports GPI-anchored proteins to the cell wall; assay: Reporter system in S. cerevisiae overexpressing the GWT1 gene product (CW63/GWT1 strain); conditions: 0.39 to 1.56 μg/ml, FIG. 6
Experimental: as §1, §2

[5] = test system: S. cerevisiae CW63 strain; assay: Fungal growth of S. cerevisiae CW63 strain by visual observation; conditions: FIG. 2
Experimental: as §3
Furthermore, fungal growth in the presence of the test sample was determined by visual observation.

[6] = test system: adhesion of C. albicans to animal cells; assay: Adhesion of C. albicans to animal cells (IEC-18); conditions: 1.56 μg/ml, immobilized IEC-18 cells, FIG. 3
Experimental: Three-milliliter aliquots of IEC-18 cells (1×10^5 cells/ml in D-MEM medium (Nissui Pharmaceutical) containing 10% fetal calf serum and 2 mM glutamine) were placed in each well of a 6-well multi-well plate. The plate was incubated in a carbon dioxide gas incubator at 37° C. for 3 days, the culture supernatant was removed, and ethanol immobilization was carried out.
C. albicans cultured in Sabouraud Dextrose Liquid Medium containing various concentrations of the test sample at 30° C. for 48 hours was adjusted to 4×10^2 cells/ml, and 1 ml was inoculated into each well of the plate in which the immobilized IEC-18 cells were cultured. After cultivation at 30° C. for 1 hour, the culture supernatant was removed, washed with PBS, and then 2 ml of Sabouraud Dextrose Agar Medium (Difco) was superposed. After cultivation at 30° C. overnight, the number of colonies (CFU) that had grown was counted and the adhesion rate was calculated.

C. albicans = assay: Growth of C. albicans in the presence of the compound
C. albicans cell wall = assay: Transmission electron microscopy of the C. albicans cell wall; conditions: C. albicans cultured in the presence of the compound, compared to untreated cells
Experimental: C. albicans which was cultured in Sabouraud Dextrose Liquid Medium (5 ml) containing various concentrations of the test agent at 30° C. for 48 hours, then centrifuged, and collected, was immobilized by potassium permanganate immobilization method, and the transmission electron microscope image thereof was observed.
This flocculent fibrous structure was not influenced by other existing antifungal agents.

CCCCNC(=O)n1c(NC(=O)OC)nc2ccccc21 [benomyl]
sensitivity or resistance of the GWT1-overexpressed strain [1]: sensitive

CCCCc1ccc(Cc2nccc3ccsc23)cc1 [Example B195, 7-(4-Butylbenzyl)thieno[2,3-c]pyridine]
IC50 (lowest concentration at which cephalosporinase activity in the cell wall fraction became 50% or less compared to no compound) [2]: 0.39 µg/mL (≈ 1.39 µM)

CCCCc1ccc(Cc2nccc3ccccc23)c(O)c1 [Example B85, 5-Butyl-2-(1-isoquinolylmethyl)phenol]
IC50 (lowest concentration at which cephalosporinase activity in the cell wall fraction became 50% or less compared to no compound) [2]: 0.20 µg/mL (≈ 0.686 µM)

CC(=O)NCC#Cc1ccc(Cc2nccc3ccccc23)cc1 [Example B60, N-{3-[4-(1-Isoquinolylmethyl)phenyl]-2-propynyl}acetamide]
IC50 (lowest concentration at which cephalosporinase activity in the cell wall fraction became 50% or less compared to no compound) [2]: 6.25 µg/mL (≈ 19.9 µM)

CCCCc1ccc(Cc2nccc3ccccc23)cc1 [Example B2, 1-(4-Butylbenzyl)isoquinoline]
IC50 (lowest concentration at which cephalosporinase activity in the cell wall fraction became 50% or less compared to no compound) [2]: 0.39 µg/mL (≈ 1.42 µM)

CCCCc1ccc(Cc2ncccc2OC)cc1 [Example B231, 2-(4-Butylbenzyl)-3-methoxypyridine]
IC50 (lowest concentration at which cephalosporinase activity in the cell wall fraction became 50% or less compared to no compound) [2]: 0.78 µg/mL (≈ 3.05 µM)

C[C@@H]1C[C@@H]([C@H](O)CC2CC(=O)NC(=O)C2)C(=O)[C@@H](C)C1 [cycloheximide]
sensitivity or resistance of the GWT1-overexpressed strain [1]: sensitive

CC(=O)N(C)CCCc1ccc(Cc2nccc3ccccc23)cc1 [Example B73, N-{3-[4-(1-isoquinolylmethyl)phenyl]propyl}-N1-methylacetamide]
IC50 (lowest concentration at which cephalosporinase activity in the cell wall fraction became 50% or less compared to no compound) [2]: 50 µg/mL (≈ 150 µM)

CCCCc1ccc(Cc2nccc(OC)c2OC)cc1 [Example B242, 2-(4-Butylbenzyl)-3,4-dimethoxypyridine]
IC50 (lowest concentration at which cephalosporinase activity in the cell wall fraction became 50% or less compared to no compound) [2]: 0.78 µg/mL (≈ 2.73 µM)

CCCCc1ccc(Cc2nccc3sccc23)cc1 [Example B187, 4-(4-Butylbenzyl)thieno[3,2-c]pyridine]
IC50 (lowest concentration at which cephalosporinase activity in the cell wall fraction became 50% or less compared to no compound) [2]: 0.78 µg/mL (≈ 2.77 µM)

CCCCc1ccc(Cc2nccc3ccccc23)cc1 [compound (Ia), 1-(4-butylbenzyl)isoquinoline]
growth inhibition ([1]; CW63/GWT1 strain, >3.13 μg/ml, FIG. 6): growth inhibition was not observed | sensitivity or resistance of the GWT1-overexpressed strain [1]: showing resistance | resistance of clone expressing a single copy of mutant GWT1 gene (R1 or R5) [3]: resistance to the aforementioned compound of the formula (Ia) was seen | influence on growth of the GWT1-deficient strain (GWT1-deficient strain): growth is not influenced | influence on cephalosporinase activity in culture supernatant and cell wall fractions [4]: no influence was observed | concentration at which growth inhibition was observed [5]: ≥ 3.13 µg/mL | adhesion of C. albicans to animal cells [6]: inhibited to about a half | growth inhibition of C. albicans (C. albicans; 1.56 μg/ml): growth inhibition cannot be observed | growth of C. albicans (C. albicans; no concentration stated): inhibits the growth | flocculent fibrous structure of the outermost layer of the cell having high electron density (C. albicans cell wall): disappeared leaving a small amount of the layer with high electron density

C[C@@H]1[C@H](O)[C@@H](C)/C=C/C=C/C=C/C=C/C=C/C=C/C=C/[C@H](O[C@@H]2O[C@H](C)[C@@H](O)[C@H](N)[C@@H]2O)C[C@@H]2O[C@](O)(C[C@@H](O)C[C@@H](O)[C@H](O)CC[C@@H](O)C[C@@H](O)CC(=O)O[C@H]1C)C[C@H](O)[C@H]2C(=O)O [amphotericin B]
sensitivity or resistance of the GWT1-overexpressed strain [1]: sensitive
